Measurements published in ChEMBL document CHEMBL1201862, “PubChem BioAssay data set” (2004).
Activity calls are given as the source filed them.

Key:
[1] = target: C-C chemokine receptor type 6 (Homo sapiens, UniProt P51684); assay: CCR6 receptor antagonists, dose response, cell-based, luminescent beta-arrestin readout (AID 504728); type: functional
Beta-galactosidase = Beta-galactosidase (Escherichia coli, UniProt Q8VNN2); assay: beta-galactosidase enzyme inhibitors and activators, dose response, artefact control for CCR6 antagonist project, biochemical, E. coli enzyme, set 3 (AID 504712); type: functional
Protein RecA = target: T1, Protein RecA (Mycobacterium tuberculosis, UniProt P9WHJ3); assay: Fluorescence Cell-Free Homogeneous Dose Retest to Identify Inhibitors of RecA-Intein Splicing Activity. [Related pubchem assays (depositor defined):AID2097, AID2223, AID489010, AID492950]; type: functional
T1 sequence (P9WHJ3 whole entry): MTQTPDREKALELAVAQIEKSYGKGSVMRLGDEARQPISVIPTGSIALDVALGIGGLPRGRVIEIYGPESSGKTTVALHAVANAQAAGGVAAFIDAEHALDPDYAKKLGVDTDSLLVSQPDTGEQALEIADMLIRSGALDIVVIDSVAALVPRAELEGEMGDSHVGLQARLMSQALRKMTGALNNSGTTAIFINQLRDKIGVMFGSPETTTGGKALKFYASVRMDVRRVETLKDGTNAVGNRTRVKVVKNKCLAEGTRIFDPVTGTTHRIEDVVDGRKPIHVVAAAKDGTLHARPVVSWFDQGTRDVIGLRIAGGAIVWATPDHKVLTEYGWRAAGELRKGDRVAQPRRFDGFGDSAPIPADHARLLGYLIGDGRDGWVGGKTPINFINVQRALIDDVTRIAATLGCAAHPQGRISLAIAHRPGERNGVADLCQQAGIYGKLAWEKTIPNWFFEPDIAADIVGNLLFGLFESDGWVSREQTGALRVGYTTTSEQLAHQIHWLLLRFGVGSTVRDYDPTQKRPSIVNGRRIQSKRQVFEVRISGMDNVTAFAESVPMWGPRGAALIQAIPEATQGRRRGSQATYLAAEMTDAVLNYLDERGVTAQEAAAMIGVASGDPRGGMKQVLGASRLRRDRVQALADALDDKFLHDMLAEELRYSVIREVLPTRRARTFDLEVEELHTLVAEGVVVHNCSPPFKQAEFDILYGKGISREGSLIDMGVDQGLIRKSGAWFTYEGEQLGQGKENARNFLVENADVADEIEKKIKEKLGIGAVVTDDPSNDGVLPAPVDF

[2] = target: T2, Replicative DNA helicase DnaB (Mycobacterium tuberculosis, UniProt P9WMR3); assay: DnaB intein splicing inhibitors, dose response, biochemical, cell-free fluorescence (AID 449749); type: functional
T2 sequence (P9WMR3 whole entry): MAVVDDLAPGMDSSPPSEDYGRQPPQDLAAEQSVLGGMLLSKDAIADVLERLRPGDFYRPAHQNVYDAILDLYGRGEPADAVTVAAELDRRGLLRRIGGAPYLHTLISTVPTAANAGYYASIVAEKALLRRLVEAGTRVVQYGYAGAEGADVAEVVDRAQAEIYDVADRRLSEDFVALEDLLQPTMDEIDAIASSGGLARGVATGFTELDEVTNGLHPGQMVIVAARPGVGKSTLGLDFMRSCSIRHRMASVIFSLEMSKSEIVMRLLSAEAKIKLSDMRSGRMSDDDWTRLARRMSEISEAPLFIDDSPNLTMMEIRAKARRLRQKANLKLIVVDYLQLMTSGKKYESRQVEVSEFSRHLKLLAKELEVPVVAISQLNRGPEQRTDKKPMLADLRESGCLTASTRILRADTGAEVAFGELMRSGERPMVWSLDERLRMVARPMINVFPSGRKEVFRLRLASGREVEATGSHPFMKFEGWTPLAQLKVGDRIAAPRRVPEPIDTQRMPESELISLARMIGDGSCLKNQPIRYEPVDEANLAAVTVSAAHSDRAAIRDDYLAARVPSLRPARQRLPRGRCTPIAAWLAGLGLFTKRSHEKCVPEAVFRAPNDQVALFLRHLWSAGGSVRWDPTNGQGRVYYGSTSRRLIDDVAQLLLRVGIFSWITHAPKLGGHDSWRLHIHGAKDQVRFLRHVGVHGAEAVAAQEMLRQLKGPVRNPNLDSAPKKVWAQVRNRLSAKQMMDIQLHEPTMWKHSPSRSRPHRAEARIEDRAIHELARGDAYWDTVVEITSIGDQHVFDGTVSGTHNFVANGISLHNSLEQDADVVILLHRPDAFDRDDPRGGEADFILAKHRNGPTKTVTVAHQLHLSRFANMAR

Genome polyprotein = Genome polyprotein (dengue virus type 2, UniProt P29990); assay: Dengue-2 NS5 methyltransferase inhibitors, primary screen, biochemical, confirmation dose response (AID 588689); type: functional
Sequence of Genome polyprotein (P29990 2492-3391 limits assumed): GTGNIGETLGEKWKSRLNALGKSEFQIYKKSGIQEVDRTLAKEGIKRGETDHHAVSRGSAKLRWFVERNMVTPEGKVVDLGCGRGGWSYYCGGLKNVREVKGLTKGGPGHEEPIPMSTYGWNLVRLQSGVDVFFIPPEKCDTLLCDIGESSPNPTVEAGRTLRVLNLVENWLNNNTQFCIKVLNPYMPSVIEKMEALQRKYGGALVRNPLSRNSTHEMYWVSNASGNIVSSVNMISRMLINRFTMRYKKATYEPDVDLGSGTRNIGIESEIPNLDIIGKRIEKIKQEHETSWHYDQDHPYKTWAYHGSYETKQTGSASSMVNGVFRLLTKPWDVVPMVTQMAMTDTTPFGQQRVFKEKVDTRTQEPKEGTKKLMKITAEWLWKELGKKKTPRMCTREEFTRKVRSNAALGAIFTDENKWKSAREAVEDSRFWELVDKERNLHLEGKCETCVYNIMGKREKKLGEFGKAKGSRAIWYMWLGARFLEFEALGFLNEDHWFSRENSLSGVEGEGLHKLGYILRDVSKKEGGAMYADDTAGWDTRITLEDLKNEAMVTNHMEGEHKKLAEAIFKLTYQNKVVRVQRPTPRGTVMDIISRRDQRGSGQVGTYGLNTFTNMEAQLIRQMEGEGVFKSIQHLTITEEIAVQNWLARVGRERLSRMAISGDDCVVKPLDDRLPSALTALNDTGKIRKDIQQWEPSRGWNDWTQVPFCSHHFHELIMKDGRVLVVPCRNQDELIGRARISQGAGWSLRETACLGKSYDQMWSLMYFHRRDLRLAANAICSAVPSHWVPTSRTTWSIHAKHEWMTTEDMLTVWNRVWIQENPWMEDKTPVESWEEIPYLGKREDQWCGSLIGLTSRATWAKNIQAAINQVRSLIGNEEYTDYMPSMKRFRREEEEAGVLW

[3] = inhibition of K1F phage lysis, E. coli UTI89, bacterial capsule biogenesis inhibitors, alamar blue (AID 488966); type: functional
[4] = target: T3, Voltage-gated N-type calcium channel alpha-1B subunit/Amyloid beta A4 precursor protein-binding family A member 1 (Homo sapiens, UniProt Q00975+Q02410); assay: disruptors of Mint-PDZ/N-type channel peptide interaction – biochemical, HTRF, set 2, SAR follow-up (AID 434980); type: functional
T3 sequence (Q00975 whole entry): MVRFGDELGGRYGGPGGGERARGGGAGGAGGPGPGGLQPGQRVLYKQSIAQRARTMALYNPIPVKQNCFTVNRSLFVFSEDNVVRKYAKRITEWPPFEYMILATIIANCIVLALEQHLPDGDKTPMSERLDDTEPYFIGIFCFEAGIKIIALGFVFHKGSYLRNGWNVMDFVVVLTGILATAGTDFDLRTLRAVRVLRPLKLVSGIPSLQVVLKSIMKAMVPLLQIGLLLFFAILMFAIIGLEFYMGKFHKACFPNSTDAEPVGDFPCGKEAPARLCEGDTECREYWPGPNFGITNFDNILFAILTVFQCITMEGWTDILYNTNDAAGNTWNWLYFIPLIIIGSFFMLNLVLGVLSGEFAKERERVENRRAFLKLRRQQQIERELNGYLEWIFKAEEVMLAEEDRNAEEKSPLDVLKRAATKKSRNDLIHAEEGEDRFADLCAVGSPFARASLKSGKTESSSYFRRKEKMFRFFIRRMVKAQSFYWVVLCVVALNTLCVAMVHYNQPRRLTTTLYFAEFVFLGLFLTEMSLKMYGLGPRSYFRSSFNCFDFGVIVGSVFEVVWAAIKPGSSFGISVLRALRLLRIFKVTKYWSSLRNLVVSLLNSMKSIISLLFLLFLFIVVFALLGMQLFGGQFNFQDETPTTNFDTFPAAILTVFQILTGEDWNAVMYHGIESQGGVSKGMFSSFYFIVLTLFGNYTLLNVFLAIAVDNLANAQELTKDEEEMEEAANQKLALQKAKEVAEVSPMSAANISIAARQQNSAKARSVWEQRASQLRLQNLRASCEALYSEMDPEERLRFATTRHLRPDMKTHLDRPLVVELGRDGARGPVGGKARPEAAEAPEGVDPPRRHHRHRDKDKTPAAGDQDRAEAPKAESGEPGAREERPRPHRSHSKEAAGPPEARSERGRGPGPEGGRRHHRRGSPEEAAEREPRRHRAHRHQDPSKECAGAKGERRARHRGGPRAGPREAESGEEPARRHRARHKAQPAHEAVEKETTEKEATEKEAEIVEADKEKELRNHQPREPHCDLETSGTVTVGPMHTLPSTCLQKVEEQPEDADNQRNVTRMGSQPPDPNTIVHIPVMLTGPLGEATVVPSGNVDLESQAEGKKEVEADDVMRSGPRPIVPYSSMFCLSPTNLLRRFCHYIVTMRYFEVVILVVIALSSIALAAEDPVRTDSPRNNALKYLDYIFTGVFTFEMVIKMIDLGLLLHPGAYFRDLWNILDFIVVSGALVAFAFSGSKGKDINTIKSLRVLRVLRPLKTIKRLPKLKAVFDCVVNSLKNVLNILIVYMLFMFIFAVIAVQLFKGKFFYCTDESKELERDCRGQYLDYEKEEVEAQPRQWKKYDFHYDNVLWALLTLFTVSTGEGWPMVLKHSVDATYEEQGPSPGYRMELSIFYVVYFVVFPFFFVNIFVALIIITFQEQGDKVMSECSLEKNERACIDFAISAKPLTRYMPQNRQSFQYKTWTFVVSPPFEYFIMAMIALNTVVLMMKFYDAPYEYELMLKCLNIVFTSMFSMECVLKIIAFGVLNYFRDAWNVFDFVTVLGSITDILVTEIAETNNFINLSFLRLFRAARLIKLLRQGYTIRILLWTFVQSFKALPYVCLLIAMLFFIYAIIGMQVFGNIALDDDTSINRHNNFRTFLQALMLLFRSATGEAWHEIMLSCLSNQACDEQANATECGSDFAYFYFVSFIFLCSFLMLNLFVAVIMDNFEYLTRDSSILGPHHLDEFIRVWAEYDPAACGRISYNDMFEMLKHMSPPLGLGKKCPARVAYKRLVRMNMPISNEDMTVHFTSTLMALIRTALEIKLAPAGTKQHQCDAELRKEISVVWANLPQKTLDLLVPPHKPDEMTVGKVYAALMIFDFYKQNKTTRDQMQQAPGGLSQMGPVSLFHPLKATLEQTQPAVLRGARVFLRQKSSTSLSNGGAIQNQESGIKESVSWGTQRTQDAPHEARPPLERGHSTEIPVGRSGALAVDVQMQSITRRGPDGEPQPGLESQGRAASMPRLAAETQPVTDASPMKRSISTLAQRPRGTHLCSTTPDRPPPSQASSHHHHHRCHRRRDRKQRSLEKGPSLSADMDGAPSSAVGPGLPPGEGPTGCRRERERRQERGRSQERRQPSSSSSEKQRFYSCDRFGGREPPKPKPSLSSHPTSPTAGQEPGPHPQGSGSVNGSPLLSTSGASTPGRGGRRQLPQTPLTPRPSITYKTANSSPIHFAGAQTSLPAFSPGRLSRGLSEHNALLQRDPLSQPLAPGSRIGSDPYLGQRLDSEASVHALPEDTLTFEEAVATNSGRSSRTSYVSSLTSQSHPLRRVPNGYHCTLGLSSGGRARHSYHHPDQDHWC
T3 sequence (Q02410 whole entry): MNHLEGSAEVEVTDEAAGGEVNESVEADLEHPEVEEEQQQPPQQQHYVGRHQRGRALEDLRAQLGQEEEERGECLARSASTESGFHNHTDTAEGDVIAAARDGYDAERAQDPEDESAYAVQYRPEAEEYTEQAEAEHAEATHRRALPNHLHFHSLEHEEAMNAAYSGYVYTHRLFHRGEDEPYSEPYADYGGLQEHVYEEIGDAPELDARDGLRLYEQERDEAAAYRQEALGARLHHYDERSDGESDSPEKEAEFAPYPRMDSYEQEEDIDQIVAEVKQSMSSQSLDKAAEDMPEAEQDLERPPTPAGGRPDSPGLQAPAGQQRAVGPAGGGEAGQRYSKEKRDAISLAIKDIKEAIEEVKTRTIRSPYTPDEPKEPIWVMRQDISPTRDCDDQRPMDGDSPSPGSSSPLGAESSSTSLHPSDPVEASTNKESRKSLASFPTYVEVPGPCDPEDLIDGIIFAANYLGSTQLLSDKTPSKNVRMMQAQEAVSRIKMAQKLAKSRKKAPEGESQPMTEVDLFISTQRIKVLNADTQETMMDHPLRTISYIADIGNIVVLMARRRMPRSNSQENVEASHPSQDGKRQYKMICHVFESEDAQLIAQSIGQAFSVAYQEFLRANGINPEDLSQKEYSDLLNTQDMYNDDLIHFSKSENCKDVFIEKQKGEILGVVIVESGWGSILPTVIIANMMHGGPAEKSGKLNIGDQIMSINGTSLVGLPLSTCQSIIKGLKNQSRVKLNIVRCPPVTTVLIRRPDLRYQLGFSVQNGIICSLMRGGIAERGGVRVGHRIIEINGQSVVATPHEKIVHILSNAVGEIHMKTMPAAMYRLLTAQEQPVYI

[5] = target: T3, Voltage-gated N-type calcium channel alpha-1B subunit/Amyloid beta A4 precursor protein-binding family A member 1; assay: disruptors of Mint-PDZ/N-type channel peptide interaction – biochemical, HTRF, SAR follow-up (AID 2489); type: functional
[6] = target: T4, Polyadenylate-binding protein 1 (Homo sapiens, UniProt P11940); assay: PABP1 MLLE–PAM2 binding inhibitor potency, dose response, biochemical, fluorescence polarization, FITC-PAM2 peptide (AID 602259); type: functional; settings: read-out: IC50_Mean
T4 sequence (P11940 whole entry): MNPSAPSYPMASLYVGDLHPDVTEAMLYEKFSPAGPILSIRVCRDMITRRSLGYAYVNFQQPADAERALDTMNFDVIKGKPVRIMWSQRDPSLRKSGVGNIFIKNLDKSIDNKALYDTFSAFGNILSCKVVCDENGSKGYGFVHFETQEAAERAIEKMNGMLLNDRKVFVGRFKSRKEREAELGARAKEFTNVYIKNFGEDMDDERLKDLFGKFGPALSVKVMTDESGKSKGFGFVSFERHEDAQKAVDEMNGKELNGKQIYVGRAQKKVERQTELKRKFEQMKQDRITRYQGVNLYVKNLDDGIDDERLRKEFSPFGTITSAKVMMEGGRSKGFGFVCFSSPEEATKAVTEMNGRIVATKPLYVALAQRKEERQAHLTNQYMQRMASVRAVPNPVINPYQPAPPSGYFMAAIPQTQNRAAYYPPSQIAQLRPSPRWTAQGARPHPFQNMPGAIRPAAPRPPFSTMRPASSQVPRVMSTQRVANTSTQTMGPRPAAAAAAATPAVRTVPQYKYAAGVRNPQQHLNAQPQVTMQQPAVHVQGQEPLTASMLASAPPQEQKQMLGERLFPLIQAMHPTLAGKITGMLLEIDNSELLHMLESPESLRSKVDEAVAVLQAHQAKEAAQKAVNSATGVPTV

[7] = target: Female germline-specific tumor suppressor gld-1 (Caenorhabditis elegans, UniProt Q17339); assay: inhibitors of GLD-1 binding to TGE RNA, dose response, biochemical, fluorescence polarization, C. elegans (AID 2802);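 note: fluorescence polarization of labeled TGE RNA bound by purified gld-1 protein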
Cytochrome P450 2C19 = Cytochrome P450 2C19 (Homo sapiens, UniProt P33261); assay: Cytochrome panel assay with activity outcomes. Panel member name: p450-cyp2c19 Compounds with AC50 equal or less than 10 uM are considered active; type: functional
[8] = target: T4, Polyadenylate-binding protein 1; assay: PABP1 MLLE–PAM2 interaction inhibitors, dose response, miRNA deadenylation inhibitor project, biochemical, fluorescence polarization, Cy5-PAM2 peptide, secondary (AID 602260); type: functional; settings: read-out: IC50_Mean
Protein Rev = Protein Rev (Human immunodeficiency virus type 1 group M subtype B (isolate HXB2)(HIV-1), UniProt P04618); assay: inhibitors of Rev binding to RRE RNA, dose response, biochemical, fluorescence polarization, HIV-1 (AID 434976); parameters: species or system Human immunodeficiency virus 1

Sequence of C-C chemokine receptor type 6 (P51684 whole entry): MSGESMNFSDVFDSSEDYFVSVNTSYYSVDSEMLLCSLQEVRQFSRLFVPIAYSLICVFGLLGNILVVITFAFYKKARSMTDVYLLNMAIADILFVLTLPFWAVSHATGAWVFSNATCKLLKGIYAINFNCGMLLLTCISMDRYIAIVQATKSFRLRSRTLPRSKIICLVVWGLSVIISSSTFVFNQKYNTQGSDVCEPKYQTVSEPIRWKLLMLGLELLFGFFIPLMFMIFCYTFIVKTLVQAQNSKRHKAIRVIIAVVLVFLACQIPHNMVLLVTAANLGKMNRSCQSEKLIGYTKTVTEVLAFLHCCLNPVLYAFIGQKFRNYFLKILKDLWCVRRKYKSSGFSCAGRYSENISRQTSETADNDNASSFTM

## O=C(Nc1nnc(C2CC2)s1)c1cc([N+](=O)[O-])ccc1N1CCCCC1
[1]
  IC50: > 66.6 µM (inactive)
Beta-galactosidase
  IC50: > 66.6 µM (inactive)

## N=C1/C(=C\c2ccc(OC(=O)c3ccc(F)cc3)cc2)C(=O)N=C2SC(N3CCOCC3)=NN12
Protein RecA
  EC50: 17.1 µM (active)
[2]
  AC50: 22.4 µM (active)
Genome polyprotein
  IC50: 19.2 µM (active)
[3]
  IC50: > 75 µM (active)

## O=C(c1cc(-c2ccco2)nc2ccccc12)N1CCN(c2ccccc2)CC1
[4]
  IC50: > 56.8 µM (inactive)
[5]
  IC50: > 56.8 µM (inactive)

## O=c1nc2[nH]c3ccccc3nc-2c(=O)[nH]1 [ALLOXAZINE]
[6]
  IC50: 35.8 µM (inactive)
[7]
  IC50: 1.47 µM (active)
Cytochrome P450 2C19
  AC50: inconclusive
[8]
  IC50: > 66 µM (inactive)
Protein Rev
  IC50: 12.4 µM (not active)
